Assays:
orexin-2 receptor (OX2R) = target: T1, orexin-2 receptor (OX2R) (Homo sapiens, UniProt O43614); assay: radioligand binding assay, membranes from CHO cells expressing OX2 receptor; settings: CHO cell membranes
T1 construct: expressed in transfected cells; host or cells: CHO cells (membrane preparation)
T1 sequence (O43614 1-444): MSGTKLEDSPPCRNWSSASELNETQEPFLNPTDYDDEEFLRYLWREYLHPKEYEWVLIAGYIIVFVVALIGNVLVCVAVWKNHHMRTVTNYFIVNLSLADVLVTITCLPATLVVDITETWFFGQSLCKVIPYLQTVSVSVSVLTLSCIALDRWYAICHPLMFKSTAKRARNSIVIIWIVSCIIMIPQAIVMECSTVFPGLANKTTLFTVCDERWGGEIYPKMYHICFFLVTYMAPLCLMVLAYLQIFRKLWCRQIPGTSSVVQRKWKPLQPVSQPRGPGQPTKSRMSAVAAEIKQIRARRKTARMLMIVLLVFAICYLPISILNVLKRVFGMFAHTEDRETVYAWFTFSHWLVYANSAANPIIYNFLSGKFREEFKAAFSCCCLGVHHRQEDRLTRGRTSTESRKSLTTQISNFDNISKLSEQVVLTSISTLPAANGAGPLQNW
Description: (§1) The utility of the compounds in accordance with the present invention as orexin receptor OX1R and/or OX2R antagonists may be readily determined without undue experimentation by methodology well known in the art, including the “FLIPR Ca^2+ Flux Assay” (Okumura et al., Biochem. Biophys. Res. Comm. 280:976-981, 2001). In a typical experiment the OX1 and OX2 receptor antagonistic activity of the compounds of the present invention was determined in accordance with the following experimental method. […] Within the Fluorescent Imaging Plate Reader (FLIPR, Molecular Devices), test compounds are added to the plate in a volume of 25 ul, incubated for 5 min and finally 25 ul of agonist is added. Fluorescence is measured for each well at 1 second intervals for 5 minutes and the height of each fluorescence peak is compared to the height of the fluorescence peak induced by 70 pM Ala-6,12 orexin-A with buffer in place of antagonist. […] Alternatively, compound potency can be assessed by a radioligand binding assay (described in Bergman et. al. Bioorg. Med. Chem. Lett. 2008, 18, 1425-1430) in which the inhibition constant (Ki) is determined in membranes prepared from CHO cells expressing either the orexin-1 (OX1) or orexin-2 (OX2) receptor. The intrinsic orexin receptor antagonist activity of a compound which may be used in the present invention may be determined by these assays.

orexin-1 receptor (OX1R) = target: T2, orexin-1 receptor (OX1R) (UniProt O43613); assay: radioligand binding assay, membranes from CHO cells expressing OX1 receptor; settings: CHO cell membranes
T2 sequence (O43613 1-425): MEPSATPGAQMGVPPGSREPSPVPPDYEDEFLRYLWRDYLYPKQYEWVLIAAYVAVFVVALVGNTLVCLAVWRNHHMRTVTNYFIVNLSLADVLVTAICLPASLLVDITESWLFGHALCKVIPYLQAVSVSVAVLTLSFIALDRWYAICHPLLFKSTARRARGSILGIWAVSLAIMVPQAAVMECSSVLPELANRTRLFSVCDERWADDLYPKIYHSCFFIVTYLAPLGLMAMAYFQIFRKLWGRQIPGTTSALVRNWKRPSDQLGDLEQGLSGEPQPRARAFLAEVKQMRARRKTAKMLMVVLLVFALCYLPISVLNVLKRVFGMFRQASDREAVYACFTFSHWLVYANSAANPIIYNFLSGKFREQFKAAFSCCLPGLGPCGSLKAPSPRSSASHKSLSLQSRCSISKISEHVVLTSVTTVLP
Description: as §1

Row | Ki (orexin-2 receptor (OX2R)) [nM] | Ki (orexin-1 receptor (OX1R)) [nM] | Compound
1 | 10 | 230 | Cc1ccc(-n2nccn2)c(C(=O)N2CC(COc3ccc(F)cn3)CC2C)c1 (racemic) [A-7, 5-fluoro-2-({5-methyl-1-[5-methyl-2-(2H-1,2,3-triazol-2-yl)benzoyl]pyrrolidin-3-yl}methoxy)pyridine]
2 | 5.1 | 37 | Cc1ccc(-n2nccn2)c(C(=O)N2CC(COc3ccc(F)cn3)CC2C)c1 (single isomer, unassigned) [A-8]

Source: patent US8357709B2, “2,4-disubstituted pyrrolidine orexin receptor antagonists” (Merck Sharp & Dohme Corp., priority 2008, dated 2013)
